Data as given in article PMC6072100, “Exploring the links between peptoid antibacterial activity and toxicity” (MedChemComm, 2017).
Square brackets hold non-standard residues; d marks the D form. Peptide text beside a SMILES is read from it. Nspe = C[C@H](NCC(=O)O)c1ccccc1; NhArg = N=C(N)NCCCCNCC(=O)O

Legend:
HaCaT cells = assay: Skin cell toxicity assay with HaCaT (alamarBlue); type: cell-based, human
Procedure, shortened: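 HaCaT cells seeded at 2x10^4 per well 24 hours before 1-hour exposure to a 2–100 µM triplicate dilution series in DMEM high glucose with 10% FBS at 37 °C, 5% CO2. Viability assessed with alamarBlue; ED50 defined as dose killing 50% of cells, derived from dose-response data.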

HepG2 cells = assay: Cytotoxicity assay with HepG2 (alamarBlue); type: cell-based, human
Procedure, shortened: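 HepG2 cells (2 × 10^4/well, seeded 1 day earlier) were exposed to compounds (2–100 μM dilution series, triplicate) for 1 h in reduced volume, then diluted with medium and incubated 24 h at 37 °C. Viability was read by alamarBlue after 2 h (Ex 560/Em 600 nm), and ED50 (dose killing 50% of cells) came from dose-response curves.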

| Compound | ED50 HaCaT (HaCaT cells) [µM] | ED50 HepG2 (HepG2 cells) [µM] |
| --- | --- | --- |
| CCCCCNCC(=O)N(CC(=O)N(CC(=O)N(CCCCC)CC(=O)N(CC(=O)N(CC(=O)N(CCCCN)CC(=O)N(CC(=O)N(CC(=O)N(CCCCN)CC(=O)N(CC(=O)N(CC(N)=O)[C@@H](C)c1ccccc1)[C@@H](C)c1ccccc1)[C@@H](C)c1ccccc1)[C@@H](C)c1ccccc1)[C@@H](C)c1ccccc1)[C@@H](C)c1ccccc1)[C@@H](C)c1ccccc1)[C@@H](C)c1ccccc1 [Peptoid 31, (NamyNspeNspe)2(NLysNspeNspe)2] | 20 | 18 |
| C[C@@H](c1ccccc1)N(CC(N)=O)C(=O)CN(C(=O)CN(CCCCNC(=N)N)C(=O)CN(C(=O)CN(C(=O)CN(CCCCNC(=N)N)C(=O)CN(C(=O)CN(C(=O)CN(CCCCNC(=N)N)C(=O)CN(C(=O)CN(C(=O)CNCCCCNC(=N)N)[C@@H](C)c1ccccc1)[C@@H](C)c1ccccc1)[C@@H](C)c1ccccc1)[C@@H](C)c1ccccc1)[C@@H](C)c1ccccc1)[C@@H](C)c1ccccc1)[C@@H](C)c1ccccc1 [Peptoid 34, (NhArgNspeNspe)4] (H-[NhArg][Nspe][Nspe][NhArg][Nspe][Nspe][NhArg][Nspe][Nspe][NhArg][Nspe][Nspe]-NH2) | 20 | 12 |
| (NhArgNmfbNmfb)4 [Peptoid 36] | 28 | 21 |
